Experimental data reported in patent publication US10266544B2, “Aryl substituted aminomethyl spectinomycin analogs as antibacterial agents” (ST. JUDE CHILDREN'S RESEARCH HOSPITAL, INC., priority 2013, dated 2019).
Structures can show the parent of a compound that is named as a salt. Where two headings read alike, the source gives them in different places.

Legend:
Assay type in all cases: cell-based
[1] = tested on: Streptococcus pneumoniae (R6); assay: MIC determination, microbroth dilution; conditions: Streptococcus pneumoniae (R6); read-out: MIC S. pn.
[2] = tested on: E. coli K12 ΔtolC; assay: microbe, parasite or virus in culture; conditions: Escherichia coli, read-out: MIC E.c. Δtolc
[3] = tested on: Neisseria meningitides (ATCC 13077); assay: Disc diffusion assay; conditions: ATCC13077, 4 μg per disc, read-out: Zone of inhibition N.m.
[4] = tested on: Bacillus anthracis, Sterne 34F2; assay: microbe, parasite or virus in culture; conditions: STERNE34F2, read-out: MIC B.a.
[5] = tested on: Stenotrophomonas maltophilia (ATCC 13637); assay: MIC determination, microbroth dilution
[6] = tested on: Proteus vulgaris (ATCC 33420); assay: MIC determination, microbroth dilution; conditions: ATCC33420
[7] = tested on: Proteus mirabilis (ATCC 25933); assay: MIC determination, microbroth dilution; conditions: ATCC25933
[8] = tested on: Streptococcus pyogenes (ATCC 700294); assay: MIC determination, microbroth dilution
[9] = tested on: Neisseria gonorrhoeae (ATCC 49226); assay: Agar MIC determination (Alamar Blue)
[10] = tested on: Burkholderia cepacia (ATCC 25416); assay: MIC determination, microbroth dilution; conditions: Burkholderia cepacia
[11] = tested on: Staphylococcus aureus (ATCC 29213); assay: MIC determination, microbroth dilution; conditions: ATCC29213; Staphylococcus aureus (ATCC 29213); read-out: MIC S.a.
[12] = tested on: Enterococcus faecalis (ATCC 33186); assay: MIC determination, microbroth dilution
[13] = tested on: Legionella pneumophila (ATCC 33153); assay: microbe, parasite or virus in culture; conditions: ATCC33153, 72 h, read-out: Zone of inhibition L.p.
[14] = tested on: M. tuberculosis clinical isolates; assay: microbe, parasite or virus in culture; conditions: Mycobacterium tuberculosis, H37RV, read-out: MIC H37Rv
[15] = tested on: MRSA, Staphylococcus aureus (NRS70); assay: MIC determination, microbroth dilution; conditions: Staphylococcus aureus (NRS70); read-out: MIC MRSA
[16] = tested on: Moraxella catarrhalis; assay: MIC determination (Table 6)
[17] = tested on: Neisseria gonorrhoeae (ATCC 49226); assay: Disc diffusion assay; conditions: ATCC49226, 4 μg per disc, read-out: Zone of inhibition N.g.
[18] = tested on: Pseudomonas aeruginosa (PA01); assay: MIC determination, microbroth dilution
[19] = tested on: Klebsiella pneumoniae (ATCC 33495); assay: MIC determination, microbroth dilution; conditions: ATCC33495
[20] = tested on: acinetobacter baumannii (ATCC 19606); assay: MIC determination, microbroth dilution; conditions: ATCC19606
[21] = tested on: Bacillus subtilis (ATCC 23857); assay: MIC determination, microbroth dilution; conditions: ATCC23857; Bacillus subtilis (ATCC 23857); read-out: MIC B.s.
[22] = tested on: Bacillus anthracis; assay: microbe, parasite or virus in culture; conditions: read-out: MIC B.a.
[23] = tested on: Escherichia coli (ATCC 700926); assay: MIC determination, microbroth dilution; conditions: ATCC700926; Escherichia coli (ATCC 700926); read-out: MIC E.c.
[24] = tested on: Haemophilus influenza (ATCC 49247); assay: microbe, parasite or virus in culture; conditions: ATCC49247; Haemophilus influenza; 4 μg per disc; range of at least two experiments; read-out: Zone of inhibition H.i.
[25] = tested on: Listeria monocytogenes; assay: MIC determination (Table 6)
[26] = tested on: Yersinia pestis; assay: microbe, parasite or virus in culture; conditions: read-out: MIC Y.p.
[27] = Stenotrophomonas maltophilia, ATCC13637, read-out: MIC S.m.
[28] = ATCC700294, Streptococcus pyogenes (ATCC 700294), read-out: MIC S. py.
[29] = ATCC49226, agar MIC, read-out: MIC N.g.
[30] = ATCC25416, read-out: MIC B.c., Burkholderia cepacia (ATCC 25416)
[31] = ATCC25416, read-out: MIC B.c., Burkholderia cepacia, Table 6
[32] = ATCC33186, Enterococcus faecalis (ATCC 33186), read-out: MIC E.f.
[33] = ATCC13637, Stenotrophomonas maltophilia (ATCC 13637), read-out: MIC S.m.
[34] = Enterococcus faecalis, ATCC33186, read-out: MIC E.f.

Compound	MIC [1] [µg/mL]	MIC [2] [µg/mL]	zone of inhibition at 4 µg/disc [3] [mm]	MIC [4] [µg/mL]	MIC [6] [µg/mL]	MIC [7] [µg/mL]	MIC [10, 30] [µg/mL]	MIC [10, 31] [µg/mL]	MIC [11] [µg/mL]	zone of inhibition at 4 µg/disc [13] [mm]	MIC [14] [µg/mL]	MIC [15] [µg/mL]	MIC [16] [µg/mL]	zone of inhibition at 4 µg/disc [17] [mm]	MIC [18] [µg/mL]	MIC [19] [µg/mL]	MIC [20] [µg/mL]	MIC [21] [µg/mL]	MIC [22] [µg/mL]	MIC [23] [µg/mL]	other results
CN[C@@H]1[C@H](O)[C@H](NC)[C@H]2O[C@]3(O)[C@H](O[C@@H]2[C@H]1O)O[C@H](C)C[C@@]3(O)CNCc1ccco1 [compound 8, 3′-(R)-3′-(2-furanylmethylaminomethyl)dihydrospectinomycin Trihydrochloride]	12.5	6.3 to 12.5	10	50	> 200	> 200	≥ 200	≥ 200	50	41	25	200	6.3	8	200	200	≥ 200	12.5	100	50	MIC [5, 27]: 6.3 to 12.5 µg/mL; MIC [8, 28]: 12.5 to 25 µg/mL; MIC [9, 29]: 50 µg/mL; MIC [12, 32]: 50 µg/mL; zone of inhibition at 4 µg/disc [24]: 9 mm; MIC [25]: 25 µg/mL
CN[C@@H]1[C@H](O)[C@H](NC)[C@H]2O[C@]3(O)[C@H](O[C@@H]2[C@H]1O)O[C@H](C)C[C@@]3(O)CNCc1ccncc1 [compound 9, 3′-(R)-3′-(4-pyridinylmethylaminomethyl)dihydrospectinomycin Tetrahydrobromide]	25 to 50	12.5	6	100 to 200	> 200	> 200	> 200	> 200	≥ 200	28	200	≥ 200	12.5	6	≥ 200	> 200	≥ 200	200	100 to 200	50	MIC [5, 33]: 200 µg/mL; MIC [8, 28]: 25 to 50 µg/mL; MIC [9, 29]: ≥ 200 µg/mL; MIC [12, 32]: > 200 µg/mL; zone of inhibition at 4 µg/disc [24]: 8 mm; MIC [25]: 100 µg/mL
CN[C@@H]1[C@H](O)[C@H](NC)[C@H]2O[C@]3(O)[C@H](O[C@@H]2[C@H]1O)O[C@H](C)C[C@@]3(O)CNCc1ccccc1F [compound 14, 3′-(R)-3′-[(2-fluoro)benzylaminomethyl)]dihydrospectinomycin Trihydrochloride]	3.1 to 6.3	25	19	50 to 100	100	> 200	100 to 200	100 to 200	200	36	50	≥ 200	1.6	18	≥ 200	≥ 200	> 200	6.3	50 to 100	50	MIC [26]: > 200 µg/mL; MIC [5, 33]: 12.5 to 25 µg/mL; MIC [8, 28]: 3.1 µg/mL; MIC [9, 29]: 12.5 to 25 µg/mL; MIC [12, 32]: 50 µg/mL; zone of inhibition at 4 µg/disc [24]: 11 to 12 mm; MIC [25]: 25 µg/mL
CN[C@@H]1[C@H](O)[C@H](NC)[C@H]2O[C@]3(O)[C@H](O[C@@H]2[C@H]1O)O[C@H](C)C[C@@]3(O)CNCc1cccc(F)c1 [compound 15, 3′-(R)-3′-[(3-fluoro)benzylaminomethyl)]dihydrospectinomycin Trihydrochloride]	3.1	6.3 to 12.5	20	12.5 to 25	200	> 200	≥ 200	≥ 200	100	41	25	50	1.6	18	≥ 200	> 200	> 200	3.1 to 6.3	12.5 to 25	25 to 50	MIC [26]: 100 µg/mL; MIC [5, 33]: 12.5 µg/mL; MIC [8, 28]: 3.1 µg/mL; MIC [9, 29]: 25 to 50 µg/mL; MIC [12, 34]: 12.5 to 25 µg/mL; zone of inhibition at 4 µg/disc [24]: 14 mm; MIC [25]: 6.3 µg/mL
CN[C@@H]1[C@H](O)[C@H](NC)[C@H]2O[C@]3(O)[C@H](O[C@@H]2[C@H]1O)O[C@H](C)C[C@@]3(O)CNCc1cccs1 [compound 17, 3′-(R)-3′-(2-thiophenylmethylaminomethyl)dihydrospectinomycin Trihydrochloride]	12.5	6.3 to 12.5	15	50	200	> 200	> 200	> 200	50	41	25	100 to 200	3.1	11	≥ 200	200	> 200	25	50	50	MIC [5, 33]: 6.3 µg/mL; MIC ([8]; Streptococcus pyogenes, ATCC700294, read-out: MIC S. py.): 6.3 to 12.5 µg/mL; MIC [9, 29]: 50 µg/mL; MIC [12, 32]: 50 µg/mL; zone of inhibition at 4 µg/disc [24]: 13 mm; MIC [25]: 12.5 µg/mL
CN[C@@H]1[C@H](O)[C@H](NC)[C@H]2O[C@]3(O)[C@H](O[C@@H]2[C@H]1O)O[C@H](C)C[C@@]3(O)CNCc1nccs1 [compound 19, 3′-(R)-3′-(2-thiazolylmethyl)aminomethyldihydrospectinomycin Tetrahydrobromide]	12.5	12.5 to 25	13	100	> 200	> 200	> 200	> 200	100	39	100	> 200	12.5	9	> 200	> 200	> 200	100	100	200	MIC [5, 33]: 25 to 50 µg/mL; MIC [8, 28]: 12.5 µg/mL; MIC [9, 29]: 100 µg/mL; MIC [12, 32]: 50 µg/mL; zone of inhibition at 4 µg/disc [24]: 10 mm; MIC [25]: 25 µg/mL
CN[C@@H]1[C@H](O)[C@H](NC)[C@H]2O[C@]3(O)[C@H](O[C@@H]2[C@H]1O)O[C@H](C)C[C@@]3(O)CNCc1ccc(Cl)s1 [compound 21, 3′-(A′)-3′-[(5-Chloro)-2-thiophenylmethylaminomethyl)dihydrospectinomycin Trihydrobromide]	3.1	12.5	19	50	≥ 200	> 200	200	200	25 to 50	22	100	200	0.8	20	> 200	> 200	> 200	25 to 50	50	50	MIC [5, 27]: 12.5 µg/mL; MIC [8, 28]: 1.6 µg/mL; MIC ([9]; ATCC49226, read-out: MIC N.g.): 12.5 to 25 µg/mL; MIC [12, 34]: 12.5 µg/mL; zone of inhibition at 4 µg/disc [24]: 13 mm; MIC [25]: 6.3 µg/mL
